The source made the active and inactive calls. No cut-off for these calls is given here.
Legend:
BXPC-3 [1] = test: Induction of apoptosis in human BXPC-3 cells assessed as decrease in number of anti-Ki67 cells at 30 uM incubated for 24 hrs by anti-Ki67 staining based confocal microscopic analysis; assay type: functional, cell-based
BXPC-3 [2] = test: Induction of apoptosis in human BXPC-3 cells assessed as increase in cleaved caspase 3 level at 10 to 30 uM incubated for 24 hrs by Western blot analysis; assay type: functional, cell-based; details: dose 10-30 µM
BXPC-3 [3] = test: Induction of apoptosis in human BXPC-3 cells assessed as increase in BAX/Bcl-2 mRNA expression ratio at 30 uM incubated for 24 hrs by RT-PCR analysis relative to control; assay type: functional
[4] = 1-octanol/PBS partition coefficient, logD of the compound at pH 7.4 by HPLC analysis; assay type: physicochemical
BXPC-3 [5] = test: Antiproliferative activity against human BXPC-3 cells assessed as inhibition of cell growth incubated for 72 hrs by WST-1 assay; assay type: functional, cell-based; details: BXPC-3, 72 h
[6] = Upregulation of phosphorylated p38 protein expression in human BXPC-3 cells at 10 to 30 uM incubated for 24 hrs by Western blot analysis relative to control; assay type: functional; details: dose 10-30 µM
BXPC-3 [7] = test: Induction of mitochodrial fission in human BXPC-3 cells assessed as reduction in mitochondrial length at 30 uM incubated for 24 hrs by MitoTracker Red CMX ROS staining based confocal microscopic analysis relative to control; assay type: functional; design: scale not given: the % may be the effect or the level left
BXPC-3 [8] = test: Induction of apoptosis in human BXPC-3 cells assessed as membrane blebbing at 30 uM incubated for 24 hrs by SRS microspectroscopic analysis; assay type: functional, cell-based
BXPC-3 [9] = test: Induction of apoptosis in human BXPC-3 cells assessed as increase in number of dead cells at 30 uM incubated for 24 hrs by EthD-1 staining based fluorescence microscopic analysis relative to control; assay type: functional
BXPC-3 [10] = test: Induction of apoptosis in human BXPC-3 cells assessed as decrease in intensity of protein-associated SRS bands at 30 uM incubated for 24 hrs by SRS microspectroscopic analysis; assay type: functional, cell-based
BXPC-3 [11] = test: Antiproliferative activity against human BXPC-3 cells assessed as inhibition of cell growth incubated for 24 hrs by WST-1 assay; assay type: functional, cell-based; details: BXPC-3, 24 h
BXPC-3 [12] = test: Induction of apoptosis in human BXPC-3 cells assessed as increase in intensity of lipid-associated SRS bands at 30 uM incubated for 24 hrs by SRS microspectroscopic analysis; assay type: functional, cell-based
BXPC-3 [13] = test: Antiproliferative activity against human BXPC-3 cells assessed as inhibition of cell growth incubated for 48 hrs by WST-1 assay; assay type: functional, cell-based; details: BXPC-3, 48 h
BXPC-3 [14] = test: Induction of apoptosis in human BXPC-3 cells assessed as nuclear condensation at 30 uM incubated for 24 hrs by Hoechst staining based confocal microscopic analysis; assay type: functional, cell-based
BXPC-3 [15] = test: Induction of apoptosis in human BXPC-3 cells assessed as accretion of lipid-like substances at 30 uM incubated for 24 hrs by SRS microspectroscopic analysis; assay type: functional, cell-based
[16] = Downregulation of phosphorylated ERK protein expression in human BXPC-3 cells at 10 to 30 uM incubated for 24 hrs by Western blot analysis relative to control; assay type: functional; details: dose 10-30 µM
BXPC-3 [17] = test: Induction of apoptosis in human BXPC-3 cells assessed as porous appearance at 30 uM incubated for 24 hrs by SRS microspectroscopic analysis; assay type: functional, cell-based
BXPC-3 [18] = test: Induction of apoptosis in human BXPC-3 cells assessed as increase in cleaved PARP level at 30 uM incubated for 24 hrs by Western blot analysis; assay type: functional, cell-based
BXPC-3 [19] = test: Induction of apoptosis in human BXPC-3 cells assessed as enlargement of cells at 30 uM incubated for 24 hrs by SRS microspectroscopic analysis; assay type: functional, cell-based
BXPC-3 [20] = test: Induction of apoptosis in human BXPC-3 cells assessed as increase in lipid level at 10 uM incubated for 24 hrs by SRS microspectroscopic analysis; assay type: functional, cell-based
BXPC-3 [21] = test: Induction of mitochodrial fission in human BXPC-3 cells assessed as reduction in mitochondrial length at 10 uM incubated for 24 hrs by MitoTracker Red CMX ROS staining based confocal microscopic analysis; assay type: functional, cell-based
BXPC-3 [22] = test: Induction of apoptosis in human BXPC-3 cells assessed as increase in cleaved caspase 3 level at 10 uM incubated for 24 hrs by Western blot analysis; assay type: functional, cell-based
BXPC-3 [23] = test: Induction of apoptosis in human BXPC-3 cells assessed as increase in cleaved PARP level at 10 uM incubated for 24 hrs by Western blot analysis; assay type: functional, cell-based

## COc1ccc(OCC(O)CO)c(C(=O)/C=C/c2cccc(OC)c2OC)c1 (stereo not given)
BXPC-3 [1]
  Activity: Active
BXPC-3 [2]
  Activity: Active
BXPC-3 [3]
  Activity: 217.4%
[4]
  logD: 2.42
BXPC-3 [5]
  IC50: 7.94 µM
[6]
  Activity: 367.3%
BXPC-3 [7]
  Activity: 16%
BXPC-3 [8]
  Activity: Active
BXPC-3 [9]
  Activity: 256.18%
BXPC-3 [10]
  Activity: Active
BXPC-3 [11]
  IC50: 32.1 µM
BXPC-3 [12]
  Activity: Active
BXPC-3 [13]
  IC50: 11.7 µM
BXPC-3 [14]
  Activity: Active
BXPC-3 [15]
  Activity: Active
[16]
  Activity: 50%
BXPC-3 [17]
  Activity: Active
BXPC-3 [18]
  Activity: Active
BXPC-3 [19]
  Activity: Active

## COc1ccc(O)c(C(=O)/C=C/c2cccc(OC)c2OC)c1
[4]
  logD: 2.98
BXPC-3 [5]
  IC50: 24 µM
BXPC-3 [11]
  IC50: 26.3 µM
BXPC-3 [13]
  IC50: 27.1 µM

## Nc1ccn([C@@H]2O[C@H](CO)[C@@H](O)C2(F)F)c(=O)n1 [GEMCITABINE]
BXPC-3 [5]
  IC50: 5.51 µM
BXPC-3 [11]
  IC50: 12.2 µM
BXPC-3 [20]
  Activity: Active
BXPC-3 [13]
  IC50: 6.83 µM
BXPC-3 [21]
  Activity: Active
BXPC-3 [22]
  Activity: Active
BXPC-3 [23]
  Activity: Active

Source: ChEMBL document CHEMBL5365442, “A novel chalcone derivative exerts anticancer effects by promoting apoptotic cell death of human pancreatic cancer cells” (Bioorg Med Chem, 2023)
